Values after ≈ are worked out from the molar mass of the structure shown.
Columns and labels:
[1] = tested on: vancomycin-intermediate Staphylococcus aureus (VISA); test: Microfluidic system of Embodiment 2 combination susceptibility testing (Test 6); format: cell-based; settings: for minimum inhibitory concentration alone (denominator of the FIC equation): antibiotic alone; for minimum inhibitory concentration in combination (vancomycin + ceftazidime): colorimetric, 24 hours of incubation at 37° C.
Protocol: In Test 6, vancomycin-intermediate Staphylococcus aureus (VISA) is designed as a bacterial suspension to be tested, and two antibiotic solutions, that is, vancomycin and ceftazidime, with different concentrations are prepared. In details, the two antibiotic solutions are transported, separately, to each of the second reaction chambers 124a′, 124b′, 124c′, 124d′, 124e′, 124f′, 124g′, 124h′, 124i′, 124j′, 124k′ to mix with the broth and the bacterial suspension to be tested. Then, concentrations of vancomycin of the second reaction chambers 124a′, 124b′, 124c′, 124d′, 124e′, 124f′, 124g′, 124h′, 124i′, 124j′, 124k′ are 4 μg/mL, 6 μg/mL, 4 μg/mL, 4 μg/mL, 4 μg/mL, 0 μg/mL, 6 μg/mL, 6 μg/mL, 2 μg/mL, 2 μg/mL and 2 μg/mL, respectively. Furthermore, concentrations of ceftazidime of the second reaction chambers 124a′, 124b′, 124c′, 124d′, 124e′, 124f′, 124g′, 124h′, 124i′, 124j′, 124k′ are 2 μg/mL, 2 μg/mL, 4 μg/mL, 6 μg/mL, 0 μg/mL, 4 μg/mL, 6 μg/mL, 4 μg/mL, 6 μg/mL, 4 μg/mL and 2 μg/mL, respectively. In addition, a proper pH indicator, such as phenol red, is added to the broth in Test 6. After incubation at 37° C. for 24 hours, results can be visually observed.
In particular, incubation times from FIG. 10(a) to FIG. 10(d) are 0 hour, 10 hours, 17 hours and 24 hours.
Then, a fractional inhibitory concentration index of the two antibiotic solutions for the vancomycin-intermediate Staphylococcus aureus can be derived from the following equation: FICindex=FICA+FICB. FICA is calculated as a quotient between the minimum inhibitory concentration of vancomycin in combination and the minimum inhibitory concentration of vancomycin alone, and FICB is calculated as a quotient between the minimum inhibitory concentration of ceftazidime in combination and the minimum inhibitory concentration of ceftazidime alone. In particular, the combination can be determined as synergic when the fractional inhibitory concentration index is ≤0.5, as antagonistic when the fractional inhibitory concentration index is >4. The results between synergy and antagonistic tendency are defined as additive or indifferent.

E. casseliflavus (vanC2) [2] = test: E-Test MIC, vancomycin-resistant Enterococcus vanC2 (Test 5); format: cell-based; settings: 24 h, read-out: MIC (E-test)
Protocol: (§1) In Test 5, the antibiotic solution, the dilution mode and the operation of the microfluidic system are the as Test 1. However, a bacterial suspension to be tested of Test 5 is the bacterial suspension containing E. casseliflavus (vancomycin-resistant Enterococcus). In particular, a genotype of the vancomycin-resistant Enterococcus in Test 4 is vanC2, and a minimum inhibitory concentration thereof is determined by the conventional method (E-Test®) to be 4 μg/mL. The incubation time and the determined minimum inhibitory concentration of E. casseliflavus (vanC2) in Test 5 are listed in Table 1.

E. faecium (vanB) [3] = test: E-Test MIC, vancomycin-resistant Enterococcus vanB (Test 3); format: cell-based; settings: incubation time 24 hours
Protocol: (§2) In Test 3, the antibiotic solution, the dilution mode and the operation of the microfluidic system are the as Test 1. However, a bacterial suspension to be tested of Test 3 is the bacterial suspension containing E. faecium (vancomycin-resistant Enterococcus). In particular, a genotype of the vancomycin-resistant Enterococcus in Test 3 is vanB, and a minimum inhibitory concentration thereof is determined by the conventional method (E-Test®) to be 8 μg/mL.

E. gallinarum (vanC1) [4] = test: E-Test MIC, vancomycin-resistant Enterococcus vanC1 (Test 4); format: cell-based; settings: incubation time 24 hours
Protocol: as §1, with “Test 4,” for “Test 5,”, “Test 4” for “Test 5”, “E. gallinarum” for “E. casseliflavus”, “is vanC1,” for “is vanC2,”, “be 3” for “be 4”, “E. gallinarum (vanC1)” for “E. casseliflavus (vanC2)”

E. faecium (vanB) [5] = test: Microfluidic system of Embodiment 1 antibiotic susceptibility testing (Test 3); format: cell-based; settings: Enterococcus faecium, incubation time 19 hours
Protocol: (§3) Briefly, five different concentrations of antibiotic solutions (0 μg/mL, 2 μg/mL, 4 μg/mL, 6 μg/mL, and 8 μg/mL) are prepared, separately, by the microfluidic system of Embodiment 1 of the present disclosure with the proportional dilution mode. Then, the antibiotic solutions are mixed with the bacteria suspensions at a final concentration of 5×10^5 CFU/mL. The determination of the minimum inhibitory concentration is read after incubation at 37° C. for 24 hours.
(§4) Alternatively, a proper pH indicator, such as phenol red, also can be added to the broth as a determination method. In details, a pH-dependent colorimetric broth, which includes brain heart infusion (BHI) media supplemented with 1% glucose and 0.05% phenol red, and antibiotics, are loaded. Then, the standard strain Enterococcus 29212 is loaded as the bacteria suspension to be tested herein for the antibiotic susceptibility testing. Please refer to FIG. 9, which is colorimetric results of the antibiotic susceptibility testing of the standard strain Enterococcus 29212 diluted by the microfluidic chip of FIG. 1. […]
as §2, with “However, a bacterial suspension to be tested of Test 3 is the bacterial suspension containing E. faecium (vancomycin-resistant Enterococcus).” left out

E. casseliflavus (vanC2) [6] = test: Microfluidic system of Embodiment 1 antibiotic susceptibility testing (Test 5); format: cell-based; settings: Enterococcus casseliflavus, incubation time 17 hours
Protocol: as §3
as §4, with “testing.” for “testing. Please refer to FIG. 9, which is colorimetric results of the antibiotic susceptibility testing of the standard strain Enterococcus 29212 diluted by the microfluidic chip of FIG. 1.”
as §1, with “However, a bacterial suspension to be tested of Test 5 is the bacterial suspension containing E. casseliflavus (vancomycin-resistant Enterococcus).” left out

[7] = tested on: standard strain Enterococcus 29212 (ATCC); test: Microfluidic system of Embodiment 1 antibiotic susceptibility testing (Test 1); format: cell-based, E. faecalis; settings: for MIC: Enterococcus
Source text: In Test 1, a standard strain Enterococcus 29212, which includes E. faecalis and is purchased from American type culture collection (ATCC), is designed as a bacterial suspension to be tested. […] In particular, the antibiotic solution of Test 1 is a vancomycin-containing solution.
As to the determination of the minimum inhibitory concentration, a quantitative dye can be added into each of the first reaction chamber 122, the second reaction chamber 124a, the second reaction chamber 124b, the second reaction chamber 124c, and the second reaction chamber 124d as mentioned above. After few minutes, an upright fluorescent microscope is applied for determining fluorescent staining results as shown in FIG. 8. In details, the fluorescent staining results of the first mixing solution and each of the second mixing solutions (that is, the concentration of the antibiotic solution is 0 μg/mL, 2 μg/mL, 4 μg/mL, 6 μg/mL and 8 μg/mL, respectively) are shown, separately, from FIG. 8 (a) to FIG. 8 (e).
Alternatively, a proper pH indicator, such as phenol red, also can be added to the broth as a determination method. In details, a pH-dependent colorimetric broth, which includes brain heart infusion (BHI) media supplemented with 1% glucose and 0.05% phenol red, and antibiotics, are loaded. Then, the standard strain Enterococcus 29212 is loaded as the bacteria suspension to be tested herein for the antibiotic susceptibility testing. […] In particular, incubation times from FIG. 9(a) to FIG. 9(f) are 0 hour, 4 hours, 10 hours, 20 hours, 23 hours, and 24 hours.
The pH-dependent colorimetric broth will be transformed into an acidic pH due to bacterial growth, and the phenol red can be visually observed through color change from red to yellow.

E. faecium (vanA) [8] = test: Microfluidic system of Embodiment 1 antibiotic susceptibility testing (Test 2); format: cell-based; settings: Enterococcus faecium, incubation time 24 hours
Protocol: as §3, §4
In Test 2, the antibiotic solution, the dilution mode and the operation of the microfluidic system are the as Test 1. […] In particular, a genotype of the vancomycin-resistant Enterococcus in Test 2 is vanA, and a minimum inhibitory concentration thereof is determined by the conventional method (E-Test®) to be 32 μg/mL.

E. faecium (vanA) [9] = test: E-Test MIC, vancomycin-resistant Enterococcus vanA (Test 2); format: cell-based; settings: incubation time 24 hours
Protocol: as §2, with “2,” for “3,”, “2” for “3”, “vanA,” for “vanB,”, “32” for “8”

E. gallinarum (vanC1) [10] = test: Microfluidic system of Embodiment 1 antibiotic susceptibility testing (Test 4); format: cell-based; settings: Enterococcus gallinarum, incubation time 16 hours
Protocol: as §3
as §4, with “testing.” for “testing. Please refer to FIG. 9, which is colorimetric results of the antibiotic susceptibility testing of the standard strain Enterococcus 29212 diluted by the microfluidic chip of FIG. 1.”
In Test 4, the antibiotic solution, the dilution mode and the operation of the microfluidic system are the as Test 1. […] In particular, a genotype of the vancomycin-resistant Enterococcus in Test 4 is vanC1, and a minimum inhibitory concentration thereof is determined by the conventional method (E-Test®) to be 3 μg/mL. The incubation time and the determined minimum inhibitory concentration of E. gallinarum (vanC1) in Test 4 are listed in Table 1.

[11] = tested on: standard strain Enterococcus 29212 (ATCC); test: E-Test MIC, standard strain Enterococcus 29212 (Test 1); format: cell-based, E. faecalis; settings: incubation time 24 hours
Protocol: In Test 1, a standard strain Enterococcus 29212, which includes E. faecalis and is purchased from American type culture collection (ATCC), is designed as a bacterial suspension to be tested. The standard strain Enterococcus 29212 is susceptible Enterococcus, and a minimum inhibitory concentration of the standard strain Enterococcus 29212 detected by a clinical standard (i.e., E-Test®) is 4 μg/mL. In particular, the antibiotic solution of Test 1 is a vancomycin-containing solution.

Row | Compound | minimum inhibitory concentration alone (denominator of the FIC equation) [1] | minimum inhibitory concentration in combination (vancomycin + ceftazidime) [1] [µg/mL] | MIC (E. casseliflavus (vanC2) [2]) [µg/mL] | MIC (E. faecium (vanB) [3]) [µg/mL] | MIC (E. gallinarum (vanC1) [4]) [µg/mL] | MIC (E. faecium (vanB) [5]) [µg/mL] | MIC (E. casseliflavus (vanC2) [6]) [µg/mL] | susceptibility of the strain according to the CLSI guidelines [7] | MIC ([7]; 37° C. for 24 hours, live bacteria green fluorescence, read-out: minimum inhibitory concentration by fluorescent staining) [µg/mL] | MIC ([7]; colorimetric (phenol red), incubation time 20 hours, read-out: MIC (Microfluidic system of Embodiment 1)) [µg/mL] | MIC (Microfluidic system of Embodiment 1) ([7]; colorimetric (phenol red), incubation time 20 hours) [µg/mL] | MIC (E. faecium (vanA) [8]) [µg/mL] | MIC (E. faecium (vanA) [9]) [µg/mL] | MIC (E. gallinarum (vanC1) [10]) [µg/mL] | MIC [11] [µg/mL]
1 | CC(C)(O/N=C(\C(=O)N[C@@H]1C(=O)N2C(C(=O)[O-])=C(C[n+]3ccccc3)CS[C@H]12)c1csc(N)n1)C(=O)O [ceftazidime] | > 256 | 2 |  |  |  |  |  |  |  |  |  |  |  |  | 
2 | CN[C@H](CC(C)C)C(=O)N[C@H]1C(=O)N[C@@H](CC(N)=O)C(=O)N[C@H]2C(=O)N[C@H]3C(=O)N[C@H](C(=O)N[C@H](C(=O)O)c4cc(O)cc(O)c4-c4cc3ccc4O)[C@H](O)c3ccc(c(Cl)c3)Oc3cc2cc(c3O[C@@H]2O[C@H](CO)[C@@H](O)[C@H](O)[C@H]2O[C@H]2C[C@](C)(N)[C@H](O)[C@H](C)O2)Oc2ccc(cc2Cl)[C@H]1O [vancomycin] | 3 | 4 | 4 (≈ 2.76 µM) | 8 (≈ 5.52 µM) | 3 (≈ 2.07 µM) | 4 (≈ 2.76 µM) | 6 (≈ 4.14 µM) | susceptible | 4 (≈ 2.76 µM) | 4 (≈ 2.76 µM) | 4 ± 0 | > 16 | 32 (≈ 22.1 µM) | 4 (≈ 2.76 µM) | 4 (≈ 2.76 µM)
